Assays:
Experiment in all cases: relative viability (nuclei count vs DMSO), 5 days (fraction); higher = more cells survive
RU-SKI 43 + Trametinib = compound: CC[C@@H](C)CNCC(=O)N1CCC2=C([C@@H]1COC3=CC=CC(=C3)C)C=CS2 [RU-SKI 43] + CC(=O)Nc1cccc(-n2c(=O)n(C3CC3)c(=O)c3c(Nc4ccc(I)cc4F)n(C)c(=O)c(C)c32)c1 [Trametinib] (partner 0.02 µM)
In short: (§1)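 Relative viability was taken as the ratio of nuclei in treated wells to nuclei in vehicle wells. Lung cancer cell lines in 1536-well plates received compounds by pin tool one day after seeding, either one drug alone or a fixed anchor-drug dose plus five library-drug doses (not always all listed) in √10 steps. Nuclei were counted on 4× images after 5 days of treatment, and values are medians of duplicate plates.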

Irinotecan + Phenformin = compound: CCc1c2c(nc3ccc(OC(=O)N4CCC(N5CCCCC5)CC4)cc13)-c1cc3c(c(=O)n1C2)COC(=O)[C@]3(O)CC [Irinotecan] + N=C(N)NC(=N)NCCc1ccccc1 [Phenformin] (partner 250 µM)
In short: as §1

MK-8033 + Palbociclib = compound: Cn1cc(-c2cnc3ccc4ccc(CS(=O)(=O)NCc5ccccn5)cc4c(=O)c3c2)cn1 [MK-8033] + CC(=O)c1c(C)c2cnc(Nc3ccc(N4CCNCC4)cn3)nc2n(C2CCCC2)c1=O [Palbociclib] (partner 0.5 µM)
In short: as §1

MK-8033 + Dasatinib = compound: Cn1cc(-c2cnc3ccc4ccc(CS(=O)(=O)NCc5ccccn5)cc4c(=O)c3c2)cn1 [MK-8033] + Cc1nc(Nc2ncc(C(=O)Nc3c(C)cccc3Cl)s2)cc(N2CCN(CCO)CC2)n1 [Dasatinib] (partner 0.075 µM)
In short: as §1

With UMC-11 the relative viability (RU-SKI 43 + Trametinib; first compound 0.1 µM) was 0.691, the relative viability (RU-SKI 43 + Trametinib; first compound 0.3162 µM) was 0.693 and the relative viability (RU-SKI 43 + Trametinib; first compound 1 µM) was 0.742. The relative viability (RU-SKI 43 + Trametinib; first compound 3.162 µM) was 0.745, the relative viability (RU-SKI 43 + Trametinib; first compound 10 µM) was 0.401 and the relative viability (Irinotecan + Phenformin; first compound 0.6325 µM) was 0.294. For the same cell line, the relative viability (Irinotecan + Phenformin; first compound 2 µM) was 0.235, the relative viability (Irinotecan + Phenformin; first compound 6.325 µM) was 0.196 and the relative viability (Irinotecan + Phenformin; first compound 20 µM) was 0.189. The relative viability (MK-8033 + Palbociclib; first compound 0.02 µM) was 0.329, the relative viability (MK-8033 + Palbociclib; first compound 0.06325 µM) was 0.337 and the relative viability (MK-8033 + Palbociclib; first compound 0.2 µM) was 0.3. It also gave a relative viability (MK-8033 + Palbociclib; first compound 0.6325 µM) of 0.35, a relative viability (MK-8033 + Palbociclib; first compound 2 µM) of 0.343 and a relative viability (MK-8033 + Dasatinib; first compound 0.02 µM) of 0.448. The relative viability (MK-8033 + Dasatinib; first compound 0.06325 µM) was 0.378, the relative viability (MK-8033 + Dasatinib; first compound 0.2 µM) was 0.421 and the relative viability (MK-8033 + Dasatinib; first compound 2 µM) was 0.413.
